Source: PubChem BioAssay AID1259407 (Chemical Carcinogenesis Research Information System (CCRIS), 2018)
Activity calls are given as the source filed them. How the calls were made is not given here.

Tested on: CCRIS mutagenicity, Ames/micronucleus/aberration tests
Assay: CCRIS mutagenicity studies

With O=[N+]([O-])c1ccc2c(c1)Cc1ccccc1-2 the mutagenic call (End Point: IN VITRO CHROMOSOMAL ABERRATIONS, Test System: CHINESE HAMSTER LUNG (CHL) CELLS, Metabolic Activation: NONE) was “inactive; negative”, the mutagenic call (End Point: IN VITRO CHROMOSOMAL ABERRATIONS, Test System: CHINESE HAMSTER LUNG (CHL) CELLS, Metabolic Activation: RAT, LIVER, S-9, KC-400) was “active; positive” and the mutagenic call (End Point: IN VITRO MICRONUCLEUS, Test System: CHL/IU CELLS, Metabolic Activation: NONE) was “active; positive”. For the same compound, the mutagenic call (Test System: AMES SALMONELLA TYPHIMURIUM, Strain/Indicator: TA98 (1,8-DNP6), Metabolic Activation: NONE, Method: PREINCUBATION) was “active; positive”, the mutagenic call (Test System: AMES SALMONELLA TYPHIMURIUM, Strain/Indicator: TA98(1,8-DNP6), Metabolic Activation: NONE, Method: STANDARD PLATE) was “active; positive” and the mutagenic call (Test System: AMES SALMONELLA TYPHIMURIUM, Strain/Indicator: TA98 (NR), Metabolic Activation: NONE, Method: PREINCUBATION) was “active; positive”. The mutagenic call (Test System: AMES SALMONELLA TYPHIMURIUM, Strain/Indicator: TA98(NR), Metabolic Activation: NONE, Method: STANDARD PLATE) was “active; positive”, the mutagenic call (Test System: AMES SALMONELLA TYPHIMURIUM, Strain/Indicator: TA98 (NR), Metabolic Activation: RAT LIVER S-9 (10%), Method: PREINCUBATION) was “active; positive” and the mutagenic call (Test System: AMES SALMONELLA TYPHIMURIUM, Strain/Indicator: TA98 (NR), Metabolic Activation: RAT LIVER S-9, 3-METHYLCHOLANTHRENE (10%), Method: PREINCUBATION) was “active; positive”. The mutagenic call (Test System: AMES SALMONELLA TYPHIMURIUM, Strain/Indicator: TA98 (NR), Metabolic Activation: RAT LIVER S-9, BETA-NAPHTHAFLAVONE (10%), Method: PREINCUBATION) was “active; positive”, the mutagenic call (Test System: AMES SALMONELLA TYPHIMURIUM, Strain/Indicator: TA98(NR), Metabolic Activation: RAT LIVER S-9, PHENOBARBITAL (10%), Method: PREINCUBATION) was “active; positive” and the mutagenic call (Test System: AMES SALMONELLA TYPHIMURIUM, Strain/Indicator: TA98 (NR), Metabolic Activation: RAT LIVER S-9 PCB, 10%, Method: PREINCUBATION) was “active; positive”. The mutagenic call (Test System: AMES SALMONELLA TYPHIMURIUM, Strain/Indicator: TA98, Metabolic Activation: NONE, Method: SPIRAL ASSAY) was “active; positive”, the mutagenic call (Test System: AMES SALMONELLA TYPHIMURIUM, Strain/Indicator: TA98, Metabolic Activation: RAT, LIVER, S-9, AROCLOR 1254, Method: SPIRAL ASSAY) was “active; positive” and the mutagenic call (Test System: AMES SALMONELLA TYPHIMURIUM, Strain/Indicator: TA98, Metabolic Activation: RAT, LIVER, S-9, AROCLOR 1254, Method: STANDARD PLATE) was “active; positive”. The mutagenic call (Test System: AMES SALMONELLA TYPHIMURIUM, Strain/Indicator: TA98, Metabolic Activation: RAT, LIVER, S-9, PCB (10%), Method: PREINCUBATION) was “active; positive”, the mutagenic call (Test System: AMES SALMONELLA TYPHIMURIUM, Strain/Indicator: TA98, Metabolic Activation: S-9, Method: PREINCUBATION) was “active; positive” and the mutagenic call (Test System: AMES SALMONELLA TYPHIMURIUM, Strain/Indicator: TA98, Metabolic Activation: S-9, Method: STANDARD PLATE) was “active; positive”. For the same compound, the mutagenic call (Test System: AMES SALMONELLA TYPHIMURIUM, Strain/Indicator: TA100(NR), Metabolic Activation: NONE, Method: STANDARD PLATE) was “inactive; negative”, the mutagenic call (Test System: AMES SALMONELLA TYPHIMURIUM, Strain/Indicator: TA100(TN5-1,8-DNP1012), Metabolic Activation: NONE, Method: STANDARD PLATE) was “inactive; negative” and the mutagenic call (Test System: AMES SALMONELLA TYPHIMURIUM, Strain/Indicator: TA100, Metabolic Activation: NONE, Method: PREINCUBATION) was “active; positive”. The mutagenic call (Test System: AMES SALMONELLA TYPHIMURIUM, Strain/Indicator: TA100, Metabolic Activation: NONE, Method: SPIRAL ASSAY) was “active; positive”, the mutagenic call (Test System: AMES SALMONELLA TYPHIMURIUM, Strain/Indicator: TA100, Metabolic Activation: RAT, LIVER, S-9, AROCLOR 1254, Method: SPIRAL ASSAY) was “active; positive” and the mutagenic call (Test System: AMES SALMONELLA TYPHIMURIUM, Strain/Indicator: TA100, Metabolic Activation: RAT, LIVER, S-9, AROCLOR 1254, Method: STANDARD PLATE) was “active; positive”. For the same compound, the mutagenic call (Test System: AMES SALMONELLA TYPHIMURIUM, Strain/Indicator: TA100, Metabolic Activation: S-9, Method: STANDARD PLATE) was “active; positive”, the mutagenic call (Test System: AMES SALMONELLA TYPHIMURIUM, Strain/Indicator: TA102, Metabolic Activation: NONE, Method: PREINCUBATION) was “active; positive” and the mutagenic call (Test System: AMES SALMONELLA TYPHIMURIUM, Strain/Indicator: TA1535, Metabolic Activation: NONE, Method: PREINCUBATION) was “active; positive”. The mutagenic call (Test System: AMES SALMONELLA TYPHIMURIUM, Strain/Indicator: TA1535, Metabolic Activation: NONE, Method: SPIRAL ASSAY) was “inactive; negative”, the mutagenic call (Test System: AMES SALMONELLA TYPHIMURIUM, Strain/Indicator: TA1535, Metabolic Activation: NONE, Method: STANDARD PLATE) was “inactive; negative” and the mutagenic call (Test System: AMES SALMONELLA TYPHIMURIUM, Strain/Indicator: TA1535, Metabolic Activation: RAT, LIVER, S-9, AROCLOR 1254, Method: SPIRAL ASSAY) was “inactive; negative”. The mutagenic call (Test System: AMES SALMONELLA TYPHIMURIUM, Strain/Indicator: TA1535, Metabolic Activation: RAT, LIVER, S-9, AROCLOR 1254, Method: STANDARD PLATE) was “inactive; negative”, the mutagenic call (Test System: AMES SALMONELLA TYPHIMURIUM, Strain/Indicator: TA1537, Metabolic Activation: NONE, Method: SPIRAL ASSAY) was “active; positive” and the mutagenic call (Test System: AMES SALMONELLA TYPHIMURIUM, Strain/Indicator: TA1537, Metabolic Activation: NONE, Method: STANDARD PLATE) was “active; positive”. The mutagenic call (Test System: AMES SALMONELLA TYPHIMURIUM, Strain/Indicator: TA1537, Metabolic Activation: RAT, LIVER, S-9, AROCLOR 1254, Method: SPIRAL ASSAY) was “active; positive”, the mutagenic call (Test System: AMES SALMONELLA TYPHIMURIUM, Strain/Indicator: TA1537, Metabolic Activation: RAT, LIVER, S-9, AROCLOR 1254, Method: STANDARD PLATE) was “active; positive” and the mutagenic call (Test System: AMES SALMONELLA TYPHIMURIUM, Strain/Indicator: TA1538, Metabolic Activation: NONE, Method: STANDARD PLATE) was “active; positive”. For the same compound, the mutagenic call (Test System: AMES SALMONELLA TYPHIMURIUM, Strain/Indicator: TA1975, Metabolic Activation: NONE, Method: PREINCUBATION) was “active; positive”, the mutagenic call (Test System: AMES SALMONELLA TYPHIMURIUM, Strain/Indicator: YG1020, Metabolic Activation: NONE, Method: PREINCUBATION) was “active; positive” and the mutagenic call (Test System: AMES SALMONELLA TYPHIMURIUM, Strain/Indicator: YG1024, Metabolic Activation: NONE, Method: PREINCUBATION) was “active; positive”. The mutagenic call (Test System: AMES SALMONELLA TYPHIMURIUM, Strain/Indicator: YG1025, Metabolic Activation: NONE, Method: PREINCUBATION) was “active; positive”, the mutagenic call (Test System: AMES SALMONELLA TYPHIMURIUM, Strain/Indicator: YG1029, Metabolic Activation: NONE, Method: PREINCUBATION) was “active; positive” and the mutagenic call (Test System: AMES SALMONELLA TYPHIMURIUM, Strain/Indicator: YG3001, Metabolic Activation: NONE, Method: PREINCUBATION) was “active; positive”. For the same compound, the mutagenic call (Test System: AMES SALMONELLA TYPHIMURIUM, Strain/Indicator: YG3002, Metabolic Activation: NONE, Method: PREINCUBATION) was “active; positive”, the mutagenic call (Test System: AMES SALMONELLA TYPHIMURIUM, Strain/Indicator: YG3003, Metabolic Activation: NONE, Method: PREINCUBATION) was “active; positive” and the mutagenic call (Test System: AMES SALMONELLA TYPHIMURIUM, Strain/Indicator: YG7112, Metabolic Activation: NONE, Method: PREINCUBATION) was “active; positive”. The mutagenic call (Test System: AMES SALMONELLA TYPHIMURIUM, Strain/Indicator: YG7113, Metabolic Activation: NONE, Method: PREINCUBATION) was “active; positive”, the mutagenic call (Test System: CHINESE HAMSTER OVARY, Strain/Indicator: CHO-K1-BH4 (HGPRT), Metabolic Activation: RAT, LIVER, S-9, AROCLOR, Method: SUSPENSION/PLATE) was “active; positive” and the mutagenic call (Test System: E. COLI, Strain/Indicator: WP2 UVRA, Metabolic Activation: HAMSTER, LIVER, S-9, AROCLOR 1254, Method: STANDARD PLATE) was “inactive; negative”. For the same compound, the mutagenic call (Test System: E. COLI, Strain/Indicator: WP2 UVRA, Metabolic Activation: HAMSTER, LIVER, S-9, Method: STANDARD PLATE) was “inactive; negative”, the mutagenic call (Test System: E. COLI, Strain/Indicator: WP2 UVRA, Metabolic Activation: MOUSE, LIVER, S-9, AROCLOR 1254, Method: STANDARD PLATE) was “inactive; negative” and the mutagenic call (Test System: E. COLI, Strain/Indicator: WP2 UVRA, Metabolic Activation: MOUSE, LIVER, S-9, Method: STANDARD PLATE) was “inactive; negative”. For the same compound, the mutagenic call (Test System: E. COLI, Strain/Indicator: WP2 UVRA, Metabolic Activation: NONE, Method: STANDARD PLATE) was “inactive; negative”, the mutagenic call (Test System: E. COLI, Strain/Indicator: WP2 UVRA, Metabolic Activation: RAT, LIVER, S-9, AROCLOR 1254, Method: STANDARD PLATE) was “inactive; negative” and the mutagenic call (Test System: E. COLI, Strain/Indicator: WP2 UVRA, Metabolic Activation: RAT, LIVER, S-9, Method: STANDARD PLATE) was “inactive; negative”. The mutagenic call (Test System: MOUSE LYMPHOMA, Strain/Indicator: L5178Y (TK+/TK-), Metabolic Activation: NONE, Method: SUSPENSION/PLATE) was “active; positive” and the mutagenic call (Test System: UDS RAT HEPATOCYTES, Strain/Indicator: THY INCORP, Metabolic Activation: NONE, Method: AUTORADIOGRAPHY (SERUM-FREE MEDIA)) was “active; positive”.
